Assay [1] in a line: Cell growth IC50, screening of AOH1160 analogs (cell line not given). The format is cell-based. To be noted: read-out: IC50 values. How it is done: (§1) FIG. 29. IC50 data for select compounds. The indicated cell lines were seeded at 10^4 cells per well in a 96 well plate. After allowing to attach to the plate overnight, cells were treated with various concentrations of the indicated compounds in triplicates for 72 hrs. The cell growth was measured by an SRB assay. The cell abundances under each treatment condition relative to the baseline were averaged and graphed ±S.D. The baseline is defined as the median value of the cell abundances under the treatment by the two lowest compound concentrations. The IC50 was calculated by the Prism program.

The test system of the next assay is SK-N-AS. In words: Cell growth IC50, screening of AOH1160 analogs. The format is cell-based. To be noted: Homo sapiens, read-out: IC50 values. The protocol: as §1
Assay [2] addresses T1, PCNA interaction with RPB1 (Homo sapiens, UniProt P12004).
T1 construct: expressed in transfected cells; host or cells: SK-N-AS (FLAG-RPB1 exogenous; PCNA endogenous)
In words: PCNA interaction with RPB1 (immunoprecipitation, western blotting). The format is cell-based. To be noted: SK-N-AS. The protocol:
FIGS. 5A-5E. Modulation of PCNA interaction with RNA polymerase II. FIG. 5A: Chromatin-bound (CB) proteins were fractioned from HEK293T cells expressing FLAG-tagged PCNA after the cells were treated with or without 500 nM AOH1996. Proteins in complex with FLAG-PCNA were immune-precipitated and analyzed by mass spectrometry. Shown are numbers of proteins whose abundances were altered (grey) or unaltered (black) by more than 2-fold by AOH1996 treatment. FIG. 5B: SK-N-AS cells exogenously expressing a FLAG-tagged RPB1 gene were fractioned before and after being treated with 500 nM AOH1996 overnight. PCNA in complex with chromatin-bound (CB) FLAG-RBP1 were analyzed by western blotting. FIG. 5C: Human SK-N-AS cells were treated with UV in the presence or absence of AOH1996 (AOH) or R9-caPep (caPep). Whole cell extracts were analyzed by western blotting. FIG. 5D: Cells exogenously expressing FLAG-tagged wildtype RPB1 or FLAG-tagged APIM-mutant RPB1 gene were fractioned. PCNA in complex with chromatin-bound (CB) FLAG-RBP1 were analyzed by western blotting. FIG. 5E: HEK293T cells were transiently transfected with a FLAG-tagged wildtype RPB1 (APIM WT) gene or mutant RPB1 gene (APIM mutant). The intracellular MCM7 and RBP1 (both the hypo-phosphorylated RNAPIIa and hyper-phosphorylated RNAPIIo forms) were analyzed by western blot after cells were treated by the indicated agents and/or UV.
Modulating PCNA interaction with transcription machinery.
Cell fractionation and immunoprecipitation. Cells were fractionated as previously described (Li et al., 2018). Briefly, intact nuclei isolated following osmotic lysis were homogenized using a 21 G needle. Chromatin was pelleted by centrifugation and incubated overnight at 4° C. with benzonase in two volumes of nuclease buffer (20 mM HEPES pH 7.5, 1.5 mM MgCl2, 1 mM EDTA, 150 mM KCl, 10% glycerol, 0.5 U μl-1 benzonase). The resulting supernatant was collected as the CB fraction. Alternatively, we sequentially incubated the chromatin pellet with RNase A and benzonase and collected the supernatants after each digestion as the CB:RNA+ and CB:RNA− fractions, respectively (Li et al., 2018).
A general note: A western blot detects proteins with antibodies after separation by electrophoresis.

Another assay relates to HTC-116. Kind of assay: Cell growth IC50, screening of AOH1160 analogs. Type of assay: cell-based. To be noted: HTC-116; read-out: IC50 values. How it is done: as §1
In a further assay the test system is RKO. In words: Cell growth IC50, screening of AOH1160 analogs. Type of assay: cell-based. The note with it: Homo sapiens, read-out: IC50 values. The protocol: as §1
In a further assay the test system is OVCAR8. Kind of assay: Cell growth IC50, screening of AOH1160 analogs. Type of assay: cell-based. The note with it: Homo sapiens, OVCAR-8; OVCAR8; read-out: IC50 values. The protocol: as §1
The target in another assay is T2, PCNA (Homo sapiens, UniProt P12004).
T2 construct: made in house; host or cells: E. coli Rosetta 2 (DE3)
T2 sequence (P12004 whole entry): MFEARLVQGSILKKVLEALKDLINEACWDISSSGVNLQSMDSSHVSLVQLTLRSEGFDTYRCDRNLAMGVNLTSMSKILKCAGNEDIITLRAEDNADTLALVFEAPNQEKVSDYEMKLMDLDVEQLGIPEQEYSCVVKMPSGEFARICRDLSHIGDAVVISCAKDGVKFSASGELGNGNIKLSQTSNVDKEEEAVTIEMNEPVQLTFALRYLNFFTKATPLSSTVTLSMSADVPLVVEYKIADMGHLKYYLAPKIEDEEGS
Kind of assay: Thermal denaturation (thermal shift) assay. The format is binding. To be noted: FIG. 24. How it is done: FIGS. 1A-1E. AOH1160 analog interactions with PCNA. FIG. 1A: Thermal shift assay: Normalized inverse derivative thermal denaturation plots of 9 μM apo-PCNA with DMSO control is depicted with a black dashed line and PCNA in the presence of 10 μM AOH1160LE is shown in light grey and 30 μM AOH1160LE in dark grey. ΔTm values are provided. FIG. 1B: As described in FIG. 1A, in the presence of 10 μM AOH1996 depicted in light grey and 30 μM AOH1996 depicted in dark grey. FIG. 1C: Four monomers (chains A-D) of PCNA are present in the asymmetric unit of the crystal. Chains A, B, and C form the homotrimer biological unit, while chain Dis orientated perpendicular to the plane of the ring, below the interface of chains B and C and it belongs to an adjacent ring. Inset: Three molecules of AOH1160LE bind in and adjacent to the PIP box cavity of each of the PCNA ring subunits. The omit map, gray mesh, is contoured to 1.56. Two PCNA monomer subunits from adjacent rings stack against each other, placing the PIP box and IDCLs of each subunit in opposing directions. FIG. 1D: The three AOH1160LE molecules are shown as stick figure representations. Two of the compounds, left and central, bind into the PIP box cavity at known PCNA-partner/compound interaction sites. […] The electrostatic surface maps are depicted with Poisson-Boltzmann electrostatic surface potentials shown in dark grey and light grey, corresponding to −10 to +10 kT/e respectively.
Targeting the PIP box and APIM binding domain of PCNA. AOH1160, a small molecule PCNA ligand, targets the cancer-distinct L126-Y133 region of PCNA (Malkas et al., 2006) and is selectively toxic to cancer cells (Gu et al., 2018). […]
Thermal denaturation assay for PCNA-AOH1996 interaction. […] Fluorescence intensity was measured within the excitation/emission ranges 470-505/540-700 nm.

A value given as a limit tells only on which side of the number the result lay.

What is called IC50 is the concentration needed to halve the response being measured. On to `O=C(O)CC[C@@H](NC(=O)c1cccc2ccccc12)C(=O)Nc1ccccc1Oc1ccccc1` [AOH1160DE], for which the IC50 in assay [1] was > 10 µM.
For `COc1cccc(Oc2ccccc2NC(=O)[C@H](CCC(=O)O)NC(=O)c2cccc3ccccc23)c1` [AOH1996LE, (S)-4-(1-naphthamido)-5-((2-(3-methoxyphenoxy)phenyl)amino)-5-oxopentanoic acid], the IC50 in assay [1] is > 10 µM.
In the case of `CC(C)[C@@H](NC(=O)c1cccc2ccccc12)C(=O)Nc1ccccc1Oc1ccccc1` [AOH1160DV, (R)—N-(3-methyl-1-oxo-1-((2-phenoxyphenyl)amino)butan-2-yl)-1-naphthamide], the IC50 in assay [1] was > 10 µM.
For `Cc1ccc(Sc2ccccc2NC(=O)[C@H](CCC(=O)O)NC(=O)c2cccc3ccccc23)cc1` [AOH1996SLE-4CH3, (S)-4-(1-naphthamido)-5-oxo-5-((2-(p-tolylthio)phenyl)amino) pentanoic acid], the IC50 in assay [1] was > 10 µM.
Consider `O=C(CNC(=O)c1cccc2ccccc12)Nc1ccccc1Oc1ccc(O)cc1` [AOH1160-4′-OH], for which the IC50 with SK-N-AS came out at 156 nM.
As to “caPep: contains the L126-Y133 sequence of PCNA that overlaps APIM-interacting region of PCNA (LGIPEQEY; UniProt P12004 126-133, looked up, fragment) [reference compound]”, the “PCNA interaction with RPB1” value in assay [2] (chromatin-bound) is recorded as “blocked PCNA interaction with RPB1”. Further, the RPB1 levels entry in assay [2] (whole cell extracts) was “increased RPB1 levels”.
Take `O=C(CNC(=O)c1cccc2ccccc12)Nc1ccccc1Sc1ccc(C(F)(F)F)cc1` [AOH1996S-4CF3, N-(2-oxo-2-((2-((4-(trifluoromethyl)phenyl)thio)phenyl)amino)ethyl)-1-naphthamide]: the figures for the IC50 in the assay on HTC-116, in the assay on RKO and in the assay on OVCAR8 were 4.6 µM, 10 µM and 3400 nM, respectively.
As for `CC(C)[C@H](NC(=O)c1cccc2ccccc12)C(=O)Nc1ccccc1Oc1ccccc1` [AOH1160LV, (S)—N-(3-methyl-1-oxo-1-((2-phenoxyphenyl)amino)butan-2-yl)-1-naphthamide], the IC50 in assay [1] was > 10 µM. Further, the “ΔTm (TSA data)” value on PCNA is reported as “very similar ΔTm compared to AOH1996”.
For the molecule `COc1cccc(Oc2ccccc2NC(=O)CNC(=O)c2ccc(-c3ccccc3)cc2)c1` [AOH1996BiNph, N-(2-((2-(3-methoxyphenoxy)phenyl)amino)-2-oxoethyl)-[1,1′-biphenyl]-4-carboxamide], in assay [1], the IC50 was > 10 µM.
Turning to `COc1cccc(Oc2ccccc2NC(=O)CNC(=O)Cc2cccc3ccccc23)c1` [AOH1996eNph, N-(2-(3-methoxyphenoxy)phenyl)-2-(2-(naphthalen-1-yl)acetamido) acetamide], the IC50 in assay [1] was > 10 µM.
Regarding `NCCCC[C@H](NC(=O)c1cccc2ccccc12)C(=O)Nc1ccccc1Oc1ccccc1` [AOH1160LK], the IC50 in assay [1] is > 10 µM.
In the case of `Cc1ccc(Sc2ccccc2NC(=O)CNC(=O)c2cccc3ccccc23)cc1` [AOH1996S-4CH3, N-(2-oxo-2-((2-(p-tolylthio)phenyl)amino)ethyl)-1-naphthamide], the IC50 in the assay on HTC-116 was 0.345 µM; with RKO, 0.503 µM; in the assay on OVCAR8, 291 nM.
Turning to `O=C(CNC(=O)c1nccc2ccccc12)Nc1ccccc1Oc1ccncc1` [AOH1167], the IC50 in assay [1] was determined as 42 µM.
The same measure, in the same setting: as for `O=C(CNC(=O)c1cccc2ccccc12)Nc1ccccc1S(=O)(=O)c1ccccc1` [AOH1160SO2, N-(2-oxo-2-((2-(phenylsulfonyl)phenyl)amino)ethyl)-1-naphthamide], the figure is > 10 µM.
For `O=C(CNC(=O)c1cccc2ccccc12)Nc1ccccc1Sc1cccc(C(F)(F)F)c1` [AOH1996S-3CF3, N-(2-oxo-2-((2-((3-(trifluoromethyl)phenyl)thio)phenyl)amino)ethyl)-1-naphthamide], the half-inhibitory concentration (IC50) with HTC-116 turned out to be 4.6 µM; in the assay with RKO, 8 µM; in the assay with OVCAR8, 2600 nM.
`NCCCC[C@@H](NC(=O)c1cccc2ccccc12)C(=O)Nc1ccccc1Oc1ccccc1` [AOH1160DK]: the IC50 in assay [1] was > 10 µM.
For the molecule `COc1cccc(Oc2ccccc2NC(=O)c2cccc3ccccc23)c1` [AOH1996t, N-(2-(3-methoxyphenoxy)phenyl)-1-naphthamide], the IC50 in assay [1] is > 10 µM.
On to `O=C(CNC(=O)c1cccc2ccccc12)Nc1ccccc1C(=O)Nc1ccccc1` [AOH1160-2AB, N-(2-oxo-2-((2-(phenylcarbamoyl)phenyl)amino)ethyl)-1-naphthamide], for which, in assay [1], the IC50 was > 10 µM.
Regarding `O=C(CNC(=O)c1cccc2ccccc12)Nc1ccccc1Nc1ccccc1` [AOH1160NH], the values for the IC50 in the assay with HTC-116, with RKO and in the assay with OVCAR8 were > 10 µM, > 10 µM and > 10000 nM, respectively.
On to `O=C(CCNC(=O)c1cccc2ccccc12)Nc1ccccc1Oc1ccccc1` [AOH1160e, N-(3-oxo-3-((2-phenoxyphenyl)amino)propyl)-1-naphthamide], for which the half-maximal inhibitory concentration (IC50) in assay [1] is > 10 µM.
As to `O=C(Nc1ccccc1Oc1ccccc1)c1cccc2ccccc12` [AOH1160t], the half-maximal inhibitory concentration (IC50) in assay [1] is > 10 µM.
For the molecule `COc1cccc(Oc2ccccc2NC(=O)CNC(=O)CCc2cccc3ccccc23)c1` [AOH1996eeNph, N-(2-((2-(3-methoxyphenoxy)phenyl)amino)-2-oxoethyl)-3-(naphthalen-1-yl) propanamide], the IC50 in assay [1] was > 10 µM.

The record behind these values is patent publication US20250171404A1, “PCNA INHIBITORS AND USES THEREOF” (CITY OF HOPE, priority 2022, published 2025).
